Values quoted from earlier work, collected in patent publication US12128121B2, “Compositions comprising organo-silanol compounds, and applications” (EXSYMOL, priority 2020, dated 2024).
Where two headings read alike, the source gives them in different places.

Compound: C[Si](O)(O)O [CH3—Si(OH)3, monomethylsilanetriol]
- concentration in water (as silicon, CH3—Si(OH)3): ~588 mg Si/I
- concentration in water (limit before self-condensation): ~21 mM
